Results on 23 compounds are retold here after EP0978517A2, “Triazolopurines, process for their preparation and their use as medicaments” (Boehringer Ingelheim Pharma KG, priority 1996, dated 1998).

Assay [1] addresses T1, human A3-adenosine receptor (Homo sapiens, UniProt P0DMS8).
T1 sequence (P0DMS8 1-318): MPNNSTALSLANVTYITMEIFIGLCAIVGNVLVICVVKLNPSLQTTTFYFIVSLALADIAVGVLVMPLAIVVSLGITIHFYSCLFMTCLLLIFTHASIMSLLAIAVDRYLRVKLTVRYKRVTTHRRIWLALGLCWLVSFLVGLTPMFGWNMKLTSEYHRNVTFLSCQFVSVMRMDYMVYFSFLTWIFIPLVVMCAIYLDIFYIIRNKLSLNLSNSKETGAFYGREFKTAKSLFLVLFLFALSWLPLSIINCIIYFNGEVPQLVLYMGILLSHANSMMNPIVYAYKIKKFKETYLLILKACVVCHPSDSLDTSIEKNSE
In words: A3 receptor binding, determined in analogy to Salvatore et al. (Table 21). The settings on record: Rezeptorbindungswerte, Tabelle 21, read-out: KiA3. An excerpt: Die in Tabelle 21 zusammengefassten A3-Rezeptorbindungswerte wurden in Analogie zu Salvatore et al. "Molecular cloning and characterization of the human A3-adenosine receptor" (Proc. Natl. Acad. Sci. USA 90, 10365-10369, 1993) ermittelt.
Die nachfolgende Tabelle enthält KiA3 (human) Rezeptorbindungswerte. Tabelle 21

Assay [2] concerns the target T2, human A1 adenosine Receptor (Homo sapiens, UniProt P30542).
T2 sequence (P30542 1-326): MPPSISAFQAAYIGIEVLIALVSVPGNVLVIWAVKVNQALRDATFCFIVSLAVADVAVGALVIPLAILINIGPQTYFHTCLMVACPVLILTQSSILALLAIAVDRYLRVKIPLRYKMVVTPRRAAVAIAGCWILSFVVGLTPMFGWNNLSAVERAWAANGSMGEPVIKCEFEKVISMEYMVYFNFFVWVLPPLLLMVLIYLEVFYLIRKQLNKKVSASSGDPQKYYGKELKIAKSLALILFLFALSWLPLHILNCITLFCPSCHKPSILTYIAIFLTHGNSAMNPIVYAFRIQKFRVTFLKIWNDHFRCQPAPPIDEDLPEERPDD
Kind of assay: A1 receptor binding, determined in analogy to Ensinger et al. (Table 20). The settings on record: Rezeptorbindungswerte, Tabelle 20, read-out: KiA1. An excerpt: Die ermittelten A1-Rezeptorbindungswerte wurden in Analogie zu Ensinger et al. in "Cloning and functional characterisation of human A1 adenosine Receptor - Biochemical and Biophysical Communications, Vol 187, No. 2, 919-926, 1992" bestimmt und sind in Tabelle 20 zusammengefaßt.
(§1) Die nachfolgende Tabelle enthält KiA1 (human) und KiA2 (Ratte) Rezeptorbindungswerte. Tabelle 20

In another assay the target is A2-Rezeptor (Rattus norvegicus, UniProt P30543). Kind of assay: A2 receptor binding (Table 20). The note with it: Ratte; Rezeptorbindungswerte, Tabelle 20; read-out: KiA2.
From the text: as §1

A2-Rezeptor, sequence (P30543 whole entry): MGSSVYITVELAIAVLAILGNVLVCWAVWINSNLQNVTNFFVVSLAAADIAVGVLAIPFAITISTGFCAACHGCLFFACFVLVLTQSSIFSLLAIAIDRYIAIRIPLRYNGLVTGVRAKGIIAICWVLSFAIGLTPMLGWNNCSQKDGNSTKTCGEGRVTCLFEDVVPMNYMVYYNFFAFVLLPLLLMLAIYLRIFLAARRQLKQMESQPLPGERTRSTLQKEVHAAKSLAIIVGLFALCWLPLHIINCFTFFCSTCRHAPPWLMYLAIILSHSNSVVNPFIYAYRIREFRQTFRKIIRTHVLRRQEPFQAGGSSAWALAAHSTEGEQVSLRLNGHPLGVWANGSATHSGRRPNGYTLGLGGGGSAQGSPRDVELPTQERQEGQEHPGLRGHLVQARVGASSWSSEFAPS

For `CCCn1c2nc(CC)[nH]c2c(=O)n2nc(Cc3ccccc3)nc12` [Beispiel 6], the Ki in assay [1] was found to be 2 nM.
Take `CCCc1nc2c([nH]1)c(=O)n1nc(Cc3ccccc3)nc1n2CCC` [Beispiel 7]: the values for the Ki (in assay [2]; at A2-Rezeptor) were 8.1 nM and 158 nM, respectively.
For `CCCCn1c2nc(C3CCCC3)[nH]c2c(=O)n2nc(Cc3ccccc3)nc12` [Beispiel 11], the Ki in assay [2] stood at 8.3 nM; on A2-Rezeptor it was 345 nM.
Turning to `CCCCCn1c2nc(C3CCCC3)[nH]c2c(=O)n2nc(Cc3ccccc3)nc12` [Beispiel 25], the Ki is 10.3 nM in assay [2], 26 nM in assay [1] and 1230 nM at A2-Rezeptor.
As to `CCCn1c2nc(C3CCCC3)[nH]c2c(=O)n2nc(C(C)(C)C)nc12` [Beispiel 39], the Ki in assay [2] came out at 6 nM; on A2-Rezeptor, 539 nM.
As to `CCCn1c2nc(C3CCCC3)[nH]c2c(=O)n2nc(C(C)C)nc12` [Beispiel 37], the Ki in assay [2] came out at 6.4 nM; on A2-Rezeptor, 307 nM.
For the compound `CCCn1c2nc(N(C)C)[nH]c2c(=O)n2nc(Cc3ccccc3)nc12` [compound 65], the Ki in assay [1] turned out to be 3 nM.
As for `CCn1c2nc(C3CCCC3)[nH]c2c(=O)n2ncnc12` [Beispiel 30], the Ki in assay [2] came to 81.5 nM; at A2-Rezeptor, 3290 nM.
On the same counts, the results for `CCCc1nc2n(CCC)c3nc(C4CCCC4)[nH]c3c(=O)n2n1` [Beispiel 36] are 5.8 nM and 731 nM.
On the same counts, the results for `CCCn1c2nc(C3CCCC3)[nH]c2c(=O)n2nc(-c3ccco3)nc12` [Beispiel 48] are 11.4 nM and 4460 nM.
On to `O=c1c2[nH]c(C3CCCC3)nc2n(Cc2ccccc2)c2nc(Cc3ccccc3)nn12` [Beispiel 12], for which the Ki in assay [1] was determined as 20 nM.
Still for that read-out and setting: under `O=c1c2[nH]cnc2[nH]c2nc(C3CCCC3)nn12` [Beispiel 19] stands 3.8 nM.
Consider `CCc1nc2c([nH]1)c(=O)n1nc(CCc3ccccc3)nc1n2CC` [compound 78], for which the Ki in assay [1] came out at 5.3 nM.
On the same count and under the same terms, to `CCc1nc2c([nH]1)c(=O)n1nc(COc3ccc(OC)cc3)nc1n2CC` [compound 82] belongs 25 nM.
On to `Cn1c2nc(C3CCCC3)[nH]c2c(=O)n2nc(Cc3ccccc3)nc12` [Beispiel 8], for which the Ki in assay [2] turned out to be 1.9 nM; at A2-Rezeptor it was 363 nM.
As to `CCCn1c2nc(CC)[nH]c2c(=O)n2nc(C3CCCC3)nc12` [Beispiel 23], the Ki in assay [1] is 2 nM.
As to `CCCn1c2nc(C3CCCC3)[nH]c2c(=O)n2nc(Cc3ccccc3)nc12` [Beispiel 10], the Ki in assay [2] amounted to 1.7 nM; on A2-Rezeptor it was 730 nM.
Consider `CCCn1c2nc[nH]c2c(=O)n2nc(Cc3ccccc3)nc12` [Beispiel 3], for which the Ki in assay [1] is 4.7 nM.
On the same count and under the same terms, to `CCn1c2nc(C(C)(C)C)[nH]c2c(=O)n2nc(Cc3ccccc3)nc12` [compound 68] belongs 30 nM.
As for `CCCCn1c2nc[nH]c2c(=O)n2nc(Cc3ccccc3)nc12` [Beispiel 4], the Ki in assay [1] came to 2.3 nM.
As to `CCCCc1nc2n(CCC)c3nc(C4CCCC4)[nH]c3c(=O)n2n1` [Beispiel 38], the Ki worked out at 6.4 nM in assay [2], 22 nM in assay [1] and 532 nM on A2-Rezeptor.
In the case of `CCn1c2nc(C3CCCC3)[nH]c2c(=O)n2nc(Cc3ccccc3)nc12` [Beispiel 9], the Ki in assay [2] turned out to be 1.4 nM; at A2-Rezeptor it was 422 nM.
On the same counts, the results for `CCCn1c2nc(N3CCOCC3)[nH]c2c(=O)n2nc(Cc3ccccc3)nc12` [Beispiel 13] are 5.2 nM and 82 nM.
